Literature values, collected in patent publication US7691903B2, “Oxidation-sensitive hydrophilic active principle containing composition and use thereof” (L'Oreal, priority 2002, dated 2010).

Settings: ascorbic acid derivatives; J. Am. Acad. Dermatol., 1996, 34, 29-33

For `O=C1O[C@H]([C@@H](O)CO)C([O-])=C1OP(=O)([O-])[O-].O=C1O[C@H]([C@@H](O)CO)C([O-])=C1OP(=O)([O-])[O-].[Mg+2].[Mg+2].[Mg+2]` [magnesium ascorbyl phosphate], the bioavailability is listed as “very low”.
